Experimental data: paper PMC6342991, “Effects of point mutations in the binding pocket of the mouse major urinary protein MUP20 on ligand affinity and specificity” (Scientific Reports, 2019)
Changes are numbered by the printed parent chain. Where “and” joins values, the source holds several entries; their conditions need not be identical. Equal values may be shown once. Entries after “also recorded” stand apart in the source; their conditions may differ. Read-outs that look alike come from different tables or passages of the source.

What was measured:
[1] = molecular target: T1, MUP20L88Q (Mus musculus, UniProt Q5FW60, L88Q); set-up: method as in Scorsone et al., IEEE Sensors Journal 2016, 16, 6543, Tab. 1; details: ref Scorsone et al., IEEE Sensors Journal 2016, 16, 6543, Tab. 1; read-out: Kd, L88Q (starred value); cited from earlier work
T1 construct: 6xHis (N); made in house; host or cells: E. coli BL21(DE3), pET5b
T1 sequence (Q5FW60 20-181 L88Q): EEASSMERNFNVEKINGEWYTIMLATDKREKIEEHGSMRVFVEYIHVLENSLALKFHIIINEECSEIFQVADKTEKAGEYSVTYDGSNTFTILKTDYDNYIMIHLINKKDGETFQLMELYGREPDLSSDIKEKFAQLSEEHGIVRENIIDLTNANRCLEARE

[2] = molecular target: T2, MUP20L124V (Mus musculus, UniProt Q5FW60, L124V); set-up: method as in Scorsone et al., IEEE Sensors Journal 2016, 16, 6543, Tab. 1; details: ref Scorsone et al., IEEE Sensors Journal 2016, 16, 6543, Tab. 1; read-out: Kd, L124V (starred value); cited from earlier work
T2 construct: 6xHis (N); made in house; host or cells: E. coli BL21(DE3), pET5b
T2 sequence (Q5FW60 20-181 L124V): T1 sequence (Q5FW60 20-181 L88Q) with Q69L, L105V

[3] = molecular target: T3, wild type MUP20 (Mus musculus, UniProt Q5FW60); experiment: Isothermal titration calorimetry, wild type MUP20; type: binding; details: for Kd: one-site binding model, 25 °C, 50 mM Tris HCl pH 7.4, read-out: Equilibrium dissociation constant Kd (ITC), WT
T3 construct: 6xHis (N); made in house; host or cells: E. coli BL21(DE3), pET5b
T3 sequence (Q5FW60 20-181): T1 sequence (Q5FW60 20-181 L88Q) with Q69L
Procedure: (§1) ITC titrations were performed at 25 ± 0.1 °C in 50 mM Tris HCl pH 7.4, using a MicroCal VP-ITC instrument. To a MUP solution (1.7 ml, 25 µM) were sequentially added 25 aliquots (10 μl each) of a ligand stock solution (500 μM), with a delay of 4 min after each injection with continuous stirring of the solution (at 307 r.p.m.) in the sample cell. Before analysis, protein samples were dialyzed overnight in the same buffer, using a Slide-A-Lyzer (3.5-kDa cutoff) from ThermoFisher Scientific (Waltham, MA, USA), and thoroughly degassed. The heat of dilution was determined in control experiments by injecting aliquots (10 µl) of a ligand stock solution (500 µM) into buffer and this was subtracted from the integrated binding isotherm prior to curve fitting. Each injection generated a heat-burst curve (μcal s^−1) versus time (min). The area under each peak was determined by integration using Origin 7.5 software (Microcal, Inc.) to give the heat associated with the injection. The heat exchanged per mole of injectant was plotted against the ligand:protein molar ratio. The binding constants (Ka) and stoichiometry (N) parameters of the binding process were obtained by fitting the integrated heats of binding to the one-site binding model using the MicroCal ITC Data Analysis software.

[4] = molecular target: T4, MUP20Y103D (Mus musculus, UniProt Q5FW60, Y103D); set-up: method as in Scorsone et al., IEEE Sensors Journal 2016, 16, 6543, Tab. 1; details: ref Scorsone et al., IEEE Sensors Journal 2016, 16, 6543, Tab. 1; read-out: Kd, Y103D (starred value); cited from earlier work
T4 construct: 6xHis (N); made in house; host or cells: E. coli BL21(DE3), pET5b
T4 sequence (Q5FW60 20-181 Y103D): T1 sequence (Q5FW60 20-181 L88Q) with Q69L, Y84D

[5] = molecular target: T5, MUP20E137K (Mus musculus, UniProt Q5FW60, E137K); experiment: Fluorescence competitive binding assay with 1-NPN, MUP20 E137K
T5 construct: 6xHis (N); made in house; host or cells: E. coli BL21(DE3), pET5b
T5 sequence (Q5FW60 20-181 E137K): T1 sequence (Q5FW60 20-181 L88Q) with Q69L, E118K
Procedure: (§2) Fluorescence competitive binding assays: Fluorescence-competitive binding assays were carried out using the fluorescent probe N-phenyl-1-naphthylamine (1-NPN), as described[39],[40]. A binding curve was constructed and the dissociation constant of the probe (KD) was calculated.
(§3) The binding analyses assumed that the protein had 100% activity and that the stoichiometry of binding was 1:1 at saturation. The affinity of various volatile ligands was measured in competitive binding assays.
(§4) The change in fluorescence was recorded after adding increasing concentrations of ligand. Competitor concentrations causing a decay of fluorescence to half-maximal intensity were determined as IC50 and the dissociation constant for the test ligands (expressed as Kd) was calculated using the following formula:1 Kd=[IC50]/1+[Probe]/KD where [Probe] is the free concentration of the fluorescent probe and KD is the dissociation constant of the complex Protein/Probe.

[6] = molecular target: T6, MUP20N107L (Mus musculus, UniProt Q5FW60, N107L); experiment: Fluorescence competitive binding assay with 1-NPN, MUP20 N107L
T6 construct: 6xHis (N); made in house; host or cells: E. coli BL21(DE3), pET5b
T6 sequence (Q5FW60 20-181 N107L): T1 sequence (Q5FW60 20-181 L88Q) with Q69L, N88L
Procedure: as §2, §3, §4

[7] = molecular target: T7, MUP20V59T (Mus musculus, UniProt Q5FW60, V59T); experiment: Fluorescence competitive binding assay with 1-NPN, MUP20 V59T
T7 construct: 6xHis (N); made in house; host or cells: E. coli BL21(DE3), pET5b
T7 sequence (Q5FW60 20-181 V59T): T1 sequence (Q5FW60 20-181 L88Q) with V40T, Q69L
Procedure: as §2, §3, §4

[8] = molecular target: T8, MUP20 mutant L124V (Mus musculus, UniProt Q5FW60, L124V); experiment: Isothermal titration calorimetry, MUP20 L124V; type: binding; details: for Drop of affinity of L124V compared to wild-type MUP20 (ITC): decrease in affinity; for Kd: one-site binding model, 25 °C, 50 mM Tris HCl pH 7.4, read-out: Equilibrium dissociation constant Kd (ITC), L124V
T8 construct: 6xHis (N); made in house; host or cells: E. coli BL21(DE3), pET5b
T8 sequence (Q5FW60 20-181 L124V): T1 sequence (Q5FW60 20-181 L88Q) with Q69L, L105V
Procedure: as §1

[9] = molecular target: T9, MUP20 mutant L88Q (Mus musculus, UniProt Q5FW60, L88Q); experiment: Isothermal titration calorimetry, MUP20 L88Q; type: binding; details: for Kd: one-site binding model, 25 °C, 50 mM Tris HCl pH 7.4, read-out: Equilibrium dissociation constant Kd (ITC), L88Q
T9 construct: 6xHis (N); made in house; host or cells: E. coli BL21(DE3), pET5b
T9 sequence (Q5FW60 20-181 L88Q): T1 sequence (Q5FW60 20-181 L88Q)
Procedure: as §1

[10] = molecular target: T3, wild type MUP20; set-up: method as in Scorsone et al., IEEE Sensors Journal 2016, 16, 6543, Tab. 1; details: ref Scorsone et al., IEEE Sensors Journal 2016, 16, 6543, Tab. 1; read-out: Kd, WT (starred value); cited from earlier work
[11] = molecular target: T10, MUP20 mutant Y103R (Mus musculus, UniProt Q5FW60, Y103R); experiment: Isothermal titration calorimetry, MUP20 Y103R; type: binding; details: 25 °C, 50 mM Tris HCl pH 7.4
T10 construct: 6xHis (N); made in house; host or cells: E. coli BL21(DE3), pET5b
T10 sequence (Q5FW60 20-181 Y103R): T1 sequence (Q5FW60 20-181 L88Q) with Q69L, Y84R
Procedure: as §1

[12] = molecular target: T1, MUP20L88Q; experiment: Fluorescence competitive binding assay with 1-NPN, MUP20 L88Q; details: 1-NPN displacement, 50 mM Tris-HCl pH 7.4, 25 °C
Procedure: as §2
The affinity of various volatile ligands was measured in competitive binding assays.
as §4

[13] = molecular target: T2, MUP20L124V; experiment: Fluorescence competitive binding assay with 1-NPN, MUP20 L124V
Procedure: as §2, §3, §4

[14] = molecular target: T11, MUP20Y103R (Mus musculus, UniProt Q5FW60, Y103R); experiment: Fluorescence competitive binding assay with 1-NPN, MUP20 Y103R
T11 construct: 6xHis (N); made in house; host or cells: E. coli BL21(DE3), pET5b
T11 sequence (Q5FW60 20-181 Y103R): T1 sequence (Q5FW60 20-181 L88Q) with Q69L, Y84R
Procedure: as §2, §3, §4

[15] = molecular target: T4, MUP20Y103D; experiment: Fluorescence competitive binding assay with 1-NPN, MUP20 Y103D
Procedure: as §2, §3, §4

[16] = molecular target: T3, wild type MUP20; experiment: Fluorescence competitive binding assay with 1-NPN, wild type MUP20; details: 1-NPN displacement, 50 mM Tris-HCl pH 7.4, 25 °C
Procedure: as §2, §3, §4

[17] = 1-NPN displacement, 50 mM Tris-HCl pH 7.4, 25 °C, read-out: Measured Kd, E137K
[18] = 1-NPN displacement, 50 mM Tris-HCl pH 7.4, 25 °C, read-out: Measured Kd, N107L
[19] = 1-NPN displacement, 50 mM Tris-HCl pH 7.4, 25 °C, read-out: Measured Kd, V59T
[20] = 1-NPN displacement, 50 mM Tris-HCl pH 7.4, 25 °C, read-out: Measured Kd, L124V
[21] = 1-NPN displacement, 50 mM Tris-HCl pH 7.4, 25 °C, read-out: Measured Kd, Y103R
[22] = 1-NPN displacement, 50 mM Tris-HCl pH 7.4, 25 °C, read-out: Measured Kd, Y103D

Row | SMILES | Kd [3] [µM] | Kd [5, 17] [µM] | Kd [6, 18] [µM] | Kd [7, 19] [µM] | Drop of affinity of L124V compared to wild-type MUP20 (ITC) [8] [fold] | Kd [8] [µM] | Kd [9] [µM] | Binding strength to Y103R mutant (ITC) [11] | Kd ([12]; read-out: Measured Kd, L88Q) | Kd [13, 20] [µM] | Kd [14, 21] [µM] | Kd [15, 22] [µM] | Kd ([16]; read-out: Measured Kd, WT) | further results
1 | Cc1ccc(O)c(C)c1 [2,4-DMP, 2,4-dimethylphenol] | – | – | – | – | – | – | – | – | – | – | – | – | – | Kd ([12]; Measured Kd, L88Q): 5.08 µM; Kd [13]: 1.3 µM; Kd [5]: 4.05 µM; Kd [14]: 11.9 µM; Kd [6]: 1.99 µM; Kd [15]: 4.68 µM; Kd [7]: 1.44 µM; Kd ([16]; Measured Kd, WT): 4.24 µM
2 | C=CC(C)(O)CCC=C(C)C (stereo not drawn) [LIN, 3,7-dimethylocta-1,6-dien-3-ol] | – | 1.85 | 1.37 | 1.6 | – | – | – | – | 2.21 µM | 0.29 | 5.93 | 2.17 | 2.82 µM | –

Now from value to molecule, other results behind:

Row | Kd [3] [µM] | Kd [5, 17] [µM] | Kd [6, 18] [µM] | Kd [7, 19] [µM] | Drop of affinity of L124V compared to wild-type MUP20 (ITC) [8] [fold] | Kd [8] [µM] | Kd [9] [µM] | Binding strength to Y103R mutant (ITC) [11] | Kd ([12]; read-out: Measured Kd, L88Q) | Kd [13, 20] [µM] | Kd [14, 21] [µM] | Kd [15, 22] [µM] | Kd ([16]; read-out: Measured Kd, WT) | SMILES | further results
3 | 76 ± 19 | 2.14 | 1.23 | 1.85 | 25 | 1900 ± 100 | 13 ± 6 | barely detectable | – | – | – | – | – | CC1=CC(=O)c2ccccc2C1=O [MEN, methylnapthalene-1,4-dione] | Kd [1]: 1.31 µM; Kd [2]: 0.07 µM; Kd [4]: 0.82 µM; Kd [10]: 0.61 µM
4 | – | 3.2 | 2.67 | 1.54 | – | – | – | – | 1.45 µM | 0.36 | 1.88 | 0.92 | 0.78 µM | CCCCCCC(CO)CCCC (stereo not drawn) [OCT, 2-butyl-1-octanol] | –
5 | 1.6 | 1.52 | 1.4 | 1.93 | 1300 | 2100 ± 200 | 2.4 | barely detectable | 1.39 µM and 1.4 µM | 0.07 | 0.74 | 0.84 | 1.29 µM and 1.3 µM | COc1nccnc1CC(C)C [PYR, 2-isobutyl-3-methoxypyrazine] | Affinity for wild type MUP20 relative to MEN (ITC) ([3]; higher affinity than MEN): > 40 fold; Change of affinity of L88Q compared to wild-type MUP20 (ITC) ([9]; number = increase in affinity): did not appreciably affect; also recorded: does not alter
